From PubChem BioAssay AID248 (DTP/NCI, 2004)
Several values for one entry are separate records, joined by “and”; a condition that tells them apart may be missing. Equal entries are not always repeated. Toxic doses and inconclusive results are not listed. Rule as the data show it: active = T/C of 150% or more; inactive = T/C below 125%.

Tested on: L1210 leukemia ip in BDF1 mice, survival T/C
Assay: NCI In Vivo Anticancer Drug Screen. Data for tumor model L1210 Leukemia (intraperitoneal) in B6D2F1 (BDF1) mice
Conditions: endpoint: mean survival time, higher = longer survival
Procedure, shortened: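 Antitumor effect is assessed in tumor-bearing animals. Survival in the compound arm is compared with a vehicle-dosed control arm and expressed as their quotient.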

[1] = dose: 100.0 mg/kg/injection, schedule: Q04DX002 (ip), vehicle: saline
[2] = dose: 200.0 mg/kg/injection, schedule: Q04DX002 (ip), vehicle: saline
[3] = dose: 100.0 mg/kg/injection, schedule: Q04DX003 (ip), vehicle: saline with Tween-80
[4] = dose: 200.0 mg/kg/injection, schedule: Q04DX003 (ip), vehicle: saline with Tween-80
[5] = dose: 400.0 mg/kg/injection, schedule: Q04DX003 (ip), vehicle: saline with Tween-80
[6] = dose: 25.0 mg/kg/injection, schedule: Q01DX009 (ip), vehicle: saline
[7] = dose: 50.0 mg/kg/injection, schedule: Q01DX009 (ip), vehicle: saline
[8] = dose: 150.0 mg/kg/injection, schedule: Q01DX009 (ip), vehicle: other
[9] = dose: 25.0 mg/kg/injection, schedule: Q04DX003 (ip), vehicle: saline
[10] = dose: 50.0 mg/kg/injection, schedule: Q04DX003 (ip), vehicle: saline
[11] = dose: 100.0 mg/kg/injection, schedule: Q04DX003 (ip), vehicle: saline
[12] = dose: 100.0 mg/kg/injection, schedule: Q01DX009 (ip), vehicle: saline with Tween-80
[13] = dose: 200.0 mg/kg/injection, schedule: Q01DX009 (ip), vehicle: saline with Tween-80
[14] = dose: 400.0 mg/kg/injection, schedule: Q01DX009 (ip), vehicle: saline with Tween-80

Measured: T/C

COc1ccc(CN(CCc2ccc(O)cc2)C(=O)C(F)(F)F)cc1O
inactive: dose: 100.0 mg/kg/injection, schedule: Q01DX001 (ip), vehicle: Klucel (hydroxypropylcellulose) (HPC) 91 % of control | dose: 200.0 mg/kg/injection, schedule: Q01DX001 (ip), vehicle: Klucel (hydroxypropylcellulose) (HPC) 89 % of control | dose: 400.0 mg/kg/injection, schedule: Q01DX001 (ip), vehicle: Klucel (hydroxypropylcellulose) (HPC) 87 % of control

Cc1ccc(NC(=O)Nc2ccccc2C(N)=O)c([N+](=O)[O-])c1
inactive: dose: 100.0 mg/kg/injection, schedule: Q04DX003 (ip), vehicle: Klucel (hydroxypropylcellulose) (HPC) 90 % of control | dose: 200.0 mg/kg/injection, schedule: Q04DX003 (ip), vehicle: Klucel (hydroxypropylcellulose) (HPC) 87 % of control | dose: 400.0 mg/kg/injection, schedule: Q04DX003 (ip), vehicle: Klucel (hydroxypropylcellulose) (HPC) 90 % of control

Cc1c(NC(=O)OCc2ccccc2)no[n+]1[O-]
inactive: [1] 102 % of control | [2] 98 % of control | dose: 400.0 mg/kg/injection, schedule: Q04DX002 (ip), vehicle: saline 98 % of control

NNC(=O)CCC(N)C(=O)O (configuration not stated)
inactive: dose: 10.77 mg/kg/injection, schedule: Q01DX Z (ip), vehicle: carboxymethylcellulose (CMC) 94 % of control | dose: 21.53 mg/kg/injection, schedule: Q01DX Z (ip), vehicle: carboxymethylcellulose (CMC) 95 % of control | dose: 43.05 mg/kg/injection, schedule: Q01DX Z (ip), vehicle: carboxymethylcellulose (CMC) 104 % of control | dose: 86.1 mg/kg/injection, schedule: Q01DX Z (ip), vehicle: carboxymethylcellulose (CMC) 111 % of control and 124 % of control

O=[N+]([O-])c1cccc(S(=O)(=O)OCCOc2ccccc2)c1
inactive: [3] 103 % of control | [4] 101 % of control | [5] 101 % of control

CN(N=O)P(=O)(Nc1ccccc1)Nc1ccccc1
inactive: [6] 111 % of control | [7] 117 % of control | dose: 66.0 mg/kg/injection, schedule: Q01DX009 (ip), vehicle: other 103 % of control | dose: 100.0 mg/kg/injection, schedule: Q01DX009 (ip), vehicle: other 100 % of control | dose: 100.0 mg/kg/injection, schedule: Q04DX003 (ip), vehicle: saline sonified 122 % of control | [8] 88 % of control

OCC1CC[N-]CC1.OCC1CC[N-]CC1.[Cl][Pt+2]([Cl])([Cl])[Cl]
inactive: dose: 12.5 mg/kg/injection, schedule: Q01DX009 (ip), vehicle: saline 105 % of control | [6] 94 % of control | [9] 94 % of control | [7] 103 % of control | [10] 107 % of control | [11] 104 % of control

N#CCc1ccc(NN)cc1
inactive: dose: 75.0 mg/kg/injection, schedule: Q01DX009 (ip), vehicle: other 93 % of control | [8] 95 % of control

C[C@@H]1C[C@@]2(C)[C@@H](CC[C@@H]3[C@@H]2CC[C@]2(C)[C@@H](OC4CCCCO4)CC[C@@H]32)CC1=O (some centres not stated)
inactive: dose: 100.0 mg/kg/injection, schedule: Q01DX001 (ip), vehicle: carboxymethylcellulose (CMC) 93 % of control | dose: 400.0 mg/kg/injection, schedule: Q01DX001 (ip), vehicle: carboxymethylcellulose (CMC) 88 % of control

CCS(=O)(=O)/C=C/c1cccs1
inactive: dose: 100.0 mg/kg/injection, schedule: Q01DX009 (ip), vehicle: Klucel (hydroxypropylcellulose) (HPC) 104 % of control | dose: 200.0 mg/kg/injection, schedule: Q01DX009 (ip), vehicle: Klucel (hydroxypropylcellulose) (HPC) 100 % of control

COc1c(O)ccc2c1-c1c3c(cc4c1C(C2)NCC4)OCO3 (configuration not stated)
inactive: dose: 100.0 mg/kg/injection, schedule: Q01DX001 (ip), vehicle: saline 102 % of control

Nc1cccc(CCc2nc(N)nc(N)c2-c2ccc(Cl)cc2)c1
inactive: dose: 100.0 mg/kg/injection, schedule: Q01DX001 (ip), vehicle: saline with Tween-80 97 % of control | dose: 200.0 mg/kg/injection, schedule: Q01DX001 (ip), vehicle: saline with Tween-80 95 % of control | dose: 400.0 mg/kg/injection, schedule: Q01DX001 (ip), vehicle: saline with Tween-80 101 % of control

Nc1nc(N)c2cc(N3CCCC3c3ccc(Cl)cc3)ccc2n1 (configuration not stated)
inactive: dose: 25.0 mg/kg/injection, schedule: Q01DX009 (ip), vehicle: water 87 % of control

ClCCN1CCOCC1
inactive: [6] 97 % of control | [9] 93 % of control and 106 % of control | [7] 100 % of control | [10] 93 % of control and 111 % of control | [11] 98 % of control and 104 % of control and 108 % of control

COc1ccc2c(c1)[nH]c1c(C)nccc12
inactive: dose: 75.0 mg/kg/injection, schedule: Q01DX Z (ip), vehicle: saline 96 % of control | dose: 150.0 mg/kg/injection, schedule: Q01DX Z (ip), vehicle: saline 100 % of control | dose: 300.0 mg/kg/injection, schedule: Q01DX Z (ip), vehicle: saline 96 % of control and 108 % of control

FC(F)(F)c1nc(=S)c2cn[nH]c2[nH]1
inactive: dose: 44.0 mg/kg/injection, schedule: Q01DX Z (ip), vehicle: methylcellulose (MC) 100 % of control | dose: 66.0 mg/kg/injection, schedule: Q01DX Z (ip), vehicle: methylcellulose (MC) 91 % of control | dose: 100.0 mg/kg/injection, schedule: Q01DX Z (ip), vehicle: methylcellulose (MC) 95 % of control

Cc1ccc(S(=O)(=O)N/N=C/C(O)C(O)C(O)C(O)CO)cc1 (configuration not stated)
inactive: [12] 102 % of control | [13] 102 % of control | [14] 100 % of control

CCOC(=O)/C(C#N)=C/c1cccn1Cc1cc(OC)cc(OC)c1
inactive: dose: 25.0 mg/kg/injection, schedule: Q04DX002 (ip), vehicle: saline 111 % of control | dose: 50.0 mg/kg/injection, schedule: Q04DX002 (ip), vehicle: saline 101 % of control | [1] 94 % of control

CCCC1C/C(=C\NC(N)=O)C(=O)O1 (configuration not stated)
inactive: dose: 100.0 mg/kg/injection, schedule: Q01DX005 (ip), vehicle: saline with Tween-80 100 % of control | [3] 104 % of control | dose: 200.0 mg/kg/injection, schedule: Q01DX005 (ip), vehicle: saline with Tween-80 100 % of control | [4] 96 % of control | dose: 400.0 mg/kg/injection, schedule: Q01DX005 (ip), vehicle: saline with Tween-80 112 % of control | [5] 101 % of control

OC(CNc1ccccc1)CN1CCCCC1 (configuration not stated)
inactive: [11] 94 % of control

COc1ccc(OC(C)=O)c2c1C(=O)OC(C)C2NC(=O)C(C)NC(C)=O (configuration not stated)
inactive: dose: 12.5 mg/kg/injection, schedule: Q04DX002 (ip), vehicle: saline with Tween-80 103 % of control | dose: 25.0 mg/kg/injection, schedule: Q04DX002 (ip), vehicle: saline with Tween-80 107 % of control | dose: 50.0 mg/kg/injection, schedule: Q04DX002 (ip), vehicle: saline with Tween-80 100 % of control

Cc1cc2ncn(CC(=O)NN)c2cc1C
inactive: [12] 86 % of control | [3] 92 % of control | [4] 95 % of control | [5] 92 % of control

C[N+](C)(N)Cc1ccc(C[N+](C)(C)N)cc1
inactive: [1] 108 % of control | [2] 97 % of control

CN(C)C(=S)NN
inactive: dose: 1.56 mg/kg/injection, schedule: Q01DX009 (ip), vehicle: saline with Tween-80 111 % of control | dose: 3.12 mg/kg/injection, schedule: Q01DX009 (ip), vehicle: saline with Tween-80 117 % of control

N#CC1(c2ccc3c(c2)OCO3)C(c2ccc3c(c2)OCO3)CC(O)(c2ccccc2)C1C(=O)c1ccccc1 (configuration not stated)
inactive: [12] 96 % of control | [13] 89 % of control | [14] 102 % of control
